# Calls of active or inactive are those of the source. The rule behind the calls is not given here.
# Molecular target: T1, Sphingosine 1-phosphate receptor 4 (Homo sapiens, UniProt O95977)
# T1 sequence (O95977 whole entry): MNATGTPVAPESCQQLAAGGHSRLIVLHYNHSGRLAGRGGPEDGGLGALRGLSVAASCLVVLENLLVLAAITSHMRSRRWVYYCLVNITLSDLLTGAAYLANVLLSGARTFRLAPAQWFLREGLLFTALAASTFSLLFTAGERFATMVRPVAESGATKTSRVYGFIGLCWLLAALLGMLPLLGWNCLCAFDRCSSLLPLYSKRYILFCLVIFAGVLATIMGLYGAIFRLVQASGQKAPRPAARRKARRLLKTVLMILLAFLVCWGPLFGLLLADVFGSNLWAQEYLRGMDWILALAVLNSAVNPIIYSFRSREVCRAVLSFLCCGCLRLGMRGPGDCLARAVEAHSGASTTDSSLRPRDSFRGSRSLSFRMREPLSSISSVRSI
# Assay: Agonist activity at S1P4 receptor in human U2OS cells expressing VP16-GAL4 transcriptional factor and beta-arrestin/TEV protease fusion protein assessed as migration of VP16-GAL4 into nucleus by FRET based beta lactamase reporter gene assay
# Assay type: functional, cell-based
row,EC50 [µM],SMILES
1,2.8,Cc1cc(/C=C2\S/C(=N\c3ccccc3)N(C)C2=O)c(C)n1-c1ccccc1F
2,3.6,C/N=C1/NC(=O)/C(=C/c2cc(C)n(-c3ccccc3F)c2C)S1

# Molecular target: T2, Sphingosine 1-phosphate receptor 4 (Homo sapiens) (UniProt O95977)
# T2 sequence (whole entry): T1 sequence (O95977 whole entry)
# Assay: Agonist activity at S1P4 receptor in human U2OS cells expressing VP16-GAL4 transcriptional factor and beta-arrestin/TEV protease fusion protein assessed as migration of VP16-GAL4 into nucleus at 25 uM by FRET based beta lactamase reporter gene assay
# Assay type: functional, cell-based
row,Activity,SMILES
1,inactive,C/N=C1/NC(=O)/C(=C/c2ccn(-c3ccccc3F)c2)S1
2,inactive,CCC/N=C1\NC(=O)/C(=C/c2cc(C)n(-c3ccccc3F)c2C)S1
3,inactive,C/N=C1\S/C(=C\c2cc(C)n(-c3ccccc3Cl)c2C)C(=O)N1C
4,inactive,C/N=C1/NC(=O)/C(=C/c2c(C)n(Cc3ccccc3)c3ccccc23)S1
5,inactive,Cc1cc(/C=C2\SC(=N)NC2=O)c(C)n1-c1ccccc1F
6,inactive,C/N=C1/NC(=O)/C(=C/c2ccn(Cc3ccccc3)c2)S1
7,inactive,COCC/N=C1\S/C(=C\c2cc(C)n(Cc3ccccc3)c2C)C(=O)N1CCOC
8,inactive,Cc1cc(/C=C2\S/C(=N\C(C)C)N(C(C)C)C2=O)c(C)n1-c1ccccc1F
9,inactive,C/N=C1\S/C(=C\c2cc(C)n(-c3cccc4ccccc34)c2C)C(=O)N1C
10,inactive,C/N=C1/NC(=O)/C(=C/c2cnn(-c3ccc(F)cc3F)c2)S1
11,inactive,Cc1cc(/C=C2\SC(=O)N(C)C2=O)c(C)n1-c1ccccc1F
12,inactive,CC/N=C1\S/C(=C\c2cc(C)n(CCc3ccccc3)c2C)C(=O)N1CC
13,inactive,C/N=C1/NC(=O)/C(=C/c2cnn(-c3ccccc3F)c2)S1
14,inactive,C/N=C1\S/C(=C\c2cc(C)n(-c3cc(C)ccc3OC)c2C)C(=O)N1C
15,inactive,CCC/N=C1\S/C(=C\c2cc(C)n(-c3ccccc3F)c2C)C(=O)N1CCC
16,inactive,C/N=C1\S/C(=C\c2cc(C)n(-c3ccccc3C)c2C)C(=O)N1C
17,inactive,C/N=C1\S/C(=C\c2cc(C)n(-c3ccc(C)cc3C)c2C)C(=O)N1C
18,inactive,C/N=C1/NC(=O)/C(=C/c2c(C)nn(-c3ccc(F)cc3)c2C)S1
19,inactive,CC/N=C1\NC(=O)/C(=C/c2cc(C)n(-c3ccccc3F)c2C)S1
20,inactive,C/N=C1\S/C(=C\c2cc(C)n(-c3ccc(OC)c(C(F)(F)F)c3)c2C)C(=O)N1C
21,inactive,C/N=C1\O/C(=C\c2cc(C)n(-c3ccccc3F)c2C)C(=O)N1C
22,inactive,Cc1cc(/C=C2\S/C(=N\c3ccccc3)NC2=O)c(C)n1-c1ccccc1F
23,inactive,CCCC/N=C1\S/C(=C\c2cc(C)n(-c3ccccc3F)c2C)C(=O)N1CCCC
24,inactive,C/N=C1\S/C(=C\c2cc(C)n(-c3ccccc3Br)c2C)C(=O)N1C
25,inactive,CC/N=C1\S/C(=C\c2cc(C)n(-c3cccc4ccccc34)c2C)C(=O)N1CC

# Molecular target: Sphingosine 1-phosphate receptor 1 (Homo sapiens, UniProt P21453)
# Sequence (P21453 whole entry): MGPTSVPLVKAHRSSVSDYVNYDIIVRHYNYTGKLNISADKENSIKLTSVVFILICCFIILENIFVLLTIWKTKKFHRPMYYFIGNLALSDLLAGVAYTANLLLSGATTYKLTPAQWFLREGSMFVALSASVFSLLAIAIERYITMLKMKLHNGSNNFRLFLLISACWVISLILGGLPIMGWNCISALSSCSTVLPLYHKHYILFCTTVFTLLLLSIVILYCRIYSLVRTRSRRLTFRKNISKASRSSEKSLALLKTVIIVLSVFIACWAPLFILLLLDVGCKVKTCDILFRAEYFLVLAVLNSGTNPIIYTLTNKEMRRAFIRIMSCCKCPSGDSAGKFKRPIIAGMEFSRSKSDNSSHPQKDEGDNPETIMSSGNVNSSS
# Assay: Agonist activity at S1P1 receptor
# Assay type: functional
row,EC50 [µM],SMILES
1,> 10,CCCCCCCCc1ccc([C@H]2C[C@H](COP(=O)(O)O)N[C@@H]2CO)cc1

# From ChEMBL document CHEMBL1909558, “Discovery, synthesis and SAR analysis of novel selective small molecule S1P4-R agonists based on a (2Z,5Z)-5-((pyrrol-3-yl)methylene)-3-alkyl-2-(alkylimino)thiazolidin-4-one chemotype” (Bioorg Med Chem Lett, 2011)
